Consider three compounds from US20230099089A1, “ANTIVIRAL SUBSTANCES WITH A WIDE SPECTRUM OF ACTIVITY” (Universitaet zu Luebeck Koerperschaft des Oeffentlichen …, priority 2020, published 2023).

The structures appear in SMILES notation. Where two headings read alike, the source gives them in different places.

The subject of one data set is MERS-CoV. Briefly: microbe, parasite or virus in culture. In kind it is cell-based, MERS coronavirus. The settings on record: Middle East respiratory syndrome-related coronavirus.
The subject of the next data set is EV-A71. Briefly: microbe, parasite or virus in culture. In kind it is cell-based. As to conditions: Enterovirus A, EVA71, read-out: EC50 EV-A71.
A short description of a further data set: plasma protein binding. In kind it is in vitro ADME.
Data set [1] is described as follows: pharmacokinetic study 2 mg/kg i.v. In kind it is in vivo. The settings on record: for CO / MRI / V / AUC(0-t) / clearance / half-life: 2 mg/kg i.v.; for AUC(0-t) / clearance / half-life: in vivo, iv. From the text: The bioavailability of the lead compound DZLO8 was also characterized in detail in an external CRO- study and the results verified.
The next data set has as its system SARS-CoV. The experiment in a line: microbe, parasite or virus in culture. In kind it is cell-based. As to conditions: Severe acute respiratory syndrome coronavirus, Vero C1008, read-out: EC50 SARS-CoV.
The subject of another data set is CVB3. The experiment in a line: microbe, parasite or virus in culture. In kind it is cell-based, coxsackievirus B3. The settings on record: Enterovirus B, CVB3, read-out: EC50 CVB3.
A further data set has as its system HCoV-229E. The experiment in a line: microbe, parasite or virus in culture. In kind it is cell-based. The settings on record: Human coronavirus 229E, Huh-7, read-out: EC50 HCoV-229E.
In a further data set the target is MERS-CoV Mpro (Middle East respiratory syndrome-related coronavirus, UniProt K9N7C7). In kind it is biochemical.
Data set [2] is described as follows: metabolic stability in mouse microsomes. The settings on record: after 30 minutes.
The nature of data set [3]: pharmacokinetic study after subcutaneous injection in CD-1 mice.
The nature of data set [4]: metabolic stability in human microsomes. As to conditions: after 30 minutes.
Setting [5] is: CD-1 mice, 20 mg/kg subcutaneous.
[6] abbreviates: CD-1 mice, 20 mg/kg subcutaneous, after 24 hours.

MERS-CoV Mpro, sequence (K9N7C7 3248-3553 limits assumed): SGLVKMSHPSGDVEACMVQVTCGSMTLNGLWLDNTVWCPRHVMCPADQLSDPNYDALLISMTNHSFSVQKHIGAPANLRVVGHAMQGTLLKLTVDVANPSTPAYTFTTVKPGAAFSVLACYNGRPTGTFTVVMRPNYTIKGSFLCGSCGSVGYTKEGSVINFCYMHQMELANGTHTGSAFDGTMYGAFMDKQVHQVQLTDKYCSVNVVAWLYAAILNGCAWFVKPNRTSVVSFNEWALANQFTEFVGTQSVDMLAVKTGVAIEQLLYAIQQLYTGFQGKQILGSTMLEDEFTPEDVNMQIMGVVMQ

As for `O=C(/C=C/c1ccccc1)N[C@@H](CC1CCCCC1)C(=O)N[C@@H](C[C@@H]1CCNC1=O)C(=O)C(=O)NCc1ccccc1` [DZL08, reference compound], in the data set with MERS-CoV (Huh-7, read-out: EC50 MERS-CoV), the concentration giving a half-maximal response (EC50) is 0.4 nM. Besides, in the data set on MERS-CoV (Vero, read-out: EC50 MERS-CoV), the EC50 was determined as 5000 nM. Besides, in the data set with EV-A71, the concentration for a half-maximal effect (EC50) came out at 3.7 µM. Further, the fraction unbound in the data set “plasma protein binding” (read-out: plasma protein binding) came to 0.01. In data set [1], this compound showed a CO of 278.34 ± 138.5 ng/mL, an MRI of 0.48 ± 0.0 h, a V of 8.20 ± 4.1 L/kg and an AUC(0-t) of 135 ± 74.6 ng·h/mL. Moreover, in [1], the clearance came to 292 ± 162 mL/min/kg and the half-life is 19.8 min. Further, in the data set on SARS-CoV, the EC50 was found to be 2100 nM. Besides, in the data set on CVB3, the EC50 worked out at 2800 nM. Further, the concentration for a half-maximal effect (EC50) in the data set with HCoV-229E was found to be 1800 nM.
On MERS-CoV Mpro, `CC(C)(C)OC(=O)Nc1cccn([C@@H](CC2CC2)C(=O)N[C@@H](C[C@@H]2CCNC2=O)C(=O)C(=O)NCc2ccccc2)c1=O` [RHCDS1c] registered a concentration for half-maximal inhibition (IC50) of 580 nM.
Regarding `CC(C)(C)OC(=O)Nc1cccn([C@@H](CC2CCCCC2)C(=O)N[C@@H](C[C@@H]2CCNC2=O)C(=O)C(=O)NC2CC2)c1=O` [RHCDS1e], in data set [2], the “compound remained metabolically stable” value is 80%. This compound showed a fraction unbound in “plasma protein binding” of 0.06. For the same compound, the toxicity in mice result in the data set “toxicity in mice” was “No evidence of toxicity”. Further, in [1], the CO turned out to be 461.44 ± 345.0 ng/mL, the MRI is given as 0.47 ± 0.1 h, the V stood at 6.73 ± 0.4 L/kg and the AUC(0-t) came out at 193 ± 59 ng·h/mL. In data set [1], this compound showed a clearance of 178 ± 51.2 mL/min/kg and a half-life of 27 ± 6 min. In addition, the “improved half-life compared to the lead compound” value in [1] (versus DZL08) is listed as 50%. This compound registered a mean residence time MRT in data set [3] (CD-1, mouse, in vivo, sc, 20 mg/kg) of roughly 1.59 h. Moreover, in data set [3] (setting [5]), the Cmax was found to be 334.50 ng/mL, the “time excreted in urine” value is on record as “up to 24 hours” and the “time the compound remained in plasma” value is recorded as “about 4 hours”. Also, in data set [3] (setting [6]), the “concentration in broncheoalveolar washing fluid (BALF)” value is 52.7 ng/mL and the “concentration in the lung” value was determined as 135 ng per g tissue. In addition, the “compound remained metabolically stable” value in data set [4] was 60%.
